Laboratory results from US10188770B2, “Dental implant having enhanced early stability and method for manufacturing same” (OSSTEMIMPLANT CO., LTD., priority 2014, dated 2019).

Assays:
implant-bone interface = experiment: Removal torque of coated implants just after coating and after 3-year storage; type: in vivo; set-up: Removal torque: unit not given here; details: for removal torque compared with other bisphosphonates and bare implant (in words): summary of Table 1, bisphosphonate-coated implants; for removal torque compared with other dental implants (in words): summary of Table 2, implants coated with both rhBMP-2 and bisphosphonate
Description: In order to confirm the long-time storage stabilities of implant, osseointegration at implant-bone interface were measured via removal torque.
Each dental implant was coated with various bisphosphonates as described example 1 and its removal torque was measured just after coating step and 3-year self-storage, respectively.
Similarly, osseointegration at implant-bone interface were measured via removal torque for dental implants wherein the osteoclast activity inhibitor coating film further comprises a bone growth factor (BMP-2) as shown in Table 2.

[1] = system: mandible and tibia of micropigs; details: hydrophilized implants coated with alendronate vs uncoated implants, 0 to 6 weeks, FIGS. 3 and 4
Description: (§1) In order to impart hydrophilicity to the implants which were subjected to the above processes, the titanium surface was hydrophilized by plasma treatment (RFGD, O2, etc.) for 1 minutes and light radiation (ultraviolet rays, ultraviolet-ozone, etc.) for 5 minutes. Then, a 10 ml solution of 40 μg Alendronate, 40 μg Zolendronate, 1 μg BMP-2, and 40 μg Alendronate+1 μg BMP-2 was uniformly applied to the surface, and the prepared implants, in which the solution was not dried, were used in the following Examples 2, 3 and 4.

tibia of micropigs = details: implants coated with rhBMP-2 and alendronate vs implants coated only with rhBMP-2, after 16 days, FIG. 6
Description: as §1

[2] = storage period 0 year, implants coated with 10 ml solution of 40 μg bisphosphonate
[3] = storage period 0 year, implants coated with 10 ml solution of 40 μg bisphosphonate and 1 μg rhBMP-2
[4] = storage period 3 year, implants coated with 10 ml solution of 40 μg bisphosphonate
[5] = storage period 3 year, implants coated with 10 ml solution of 40 μg bisphosphonate and 1 μg rhBMP-2

Work on `CCCCCN(C)CCC(O)(P(=O)(O)O)P(=O)(O)O` [Ibandronate] yielded a Removal torque (implant-bone interface; [2]) of 98.4 ± 12.1, a Removal torque (implant-bone interface; [3]) of 128.8 ± 13.4 and a Removal torque (implant-bone interface; [4]) of 85.4 ± 12.5. It also gave a Removal torque (implant-bone interface; [5]) of 110.8 ± 13.4.

In the case of `NCCCC(O)(P(=O)(O)O)P(=O)(O)O` [Alendronate], the Removal torque (implant-bone interface; [2]) is reported as 100.2 ± 8.4, the Removal torque (implant-bone interface; [3]) is reported as 130.1 ± 9.7 and the Removal torque (implant-bone interface; [4]) is reported as 99.4 ± 11.8. The Removal torque (implant-bone interface; [5]) was 129.8 ± 13.1, the “removal torque compared with other bisphosphonates and bare implant (in words)” value (implant-bone interface) was “higher removal torque” and the “removal torque compared with other dental implants (in words)” value (implant-bone interface) was “higher removal torque value”. The “decrease in ISQ values compared to the negative control group” value [1] was “little decrease in ISQ values or the degree of the decrease was very lower” and the “increase of removal torque compared to the negative control group” value (tibia of micropigs) was “about 23%”.

`NCCC(O)(P(=O)(O)O)P(=O)(O)O` [Pamindronate] gave a Removal torque (implant-bone interface; [2]) of 99.6 ± 7.9, a Removal torque (implant-bone interface; [3]) of 127.5 ± 12.2 and a Removal torque (implant-bone interface; [4]) of 84.1 ± 11.4. The Removal torque (implant-bone interface; [5]) was 109.7 ± 12.2.

`O=P(O)(O)C(O)(Cc1cccnc1)P(=O)(O)O` [Resendronate] gave a Removal torque (implant-bone interface; [2]) of 103.5 ± 9.3, a Removal torque (implant-bone interface; [3]) of 128.1 ± 11.6 and a Removal torque (implant-bone interface; [4]) of 83.2 ± 9.3.

In the case of `O=P(O)(O)C(O)(Cn1ccnc1)P(=O)(O)O` [Zolendronate], the Removal torque (implant-bone interface; [2]) is reported as 104.4 ± 11.1, the Removal torque (implant-bone interface; [3]) is reported as 134.4 ± 11.9 and the Removal torque (implant-bone interface; [4]) is reported as 103.8 ± 8.9. The Removal torque (implant-bone interface; [5]) was 132.5 ± 10.7, the “removal torque compared with other bisphosphonates and bare implant (in words)” value (implant-bone interface) was “higher removal torque” and the “removal torque compared with other dental implants (in words)” value (implant-bone interface) was “higher removal torque value”.
